This note sets out measurements from patent publication US10793601B2, “Therapeutic spalt-like transcription factor 4 (SALL4) peptide” (National University of Singapore, priority 2016, dated 2020).

Several values for one entry are separate records, joined by “and”; a condition that tells them apart may be missing. Identical values can stand only once. Ends that are not written are not given here.

For one series, the system named is SNU398 cells. As to the kind of experiment: Cell viability assay in SNU398 cells. Type of series: cell-based. The conditions noted are these: for EC50: 72 h. The method, then:
(§1) FIGS. 3A-3E. Key residues involved in SALL4 (1-12)-RBBp4 binding. […] The difference in the binding free energy (ΔΔGbind) of the alanine mutants (ΔGmutant, Ala7 was mutated to glycine) and wild type (ΔGwild type) was calculated (ΔΔGbind=ΔGmutant−ΔGwild type). ΔΔGbind was tabulated (left) and plotted in a bar chart (right). […] Mutated residues are highlighted in red. The IC50 of each peptide, including WT, was determined by Fluorescence Polarization (FP). Different concentrations of each peptide were titrated into a mixture of 0.04 μM RBBp4 and 0.01 μM of C-labelled FITC-SALL4 WT peptide. Polarization was measured in mP. […] Pep-1 carrier was added to the peptide to facilitate cellular penetration of the peptides.
FIGS. 5A-5B. Development of a potent therapeutic peptide FFW.
SNU398 was grown in RPMI supplemented with 10% fetal bovine serum (FBS) at 37° C. in a humidified atmosphere of 5% CO2. 3000 cells were seeded in each well of a 96 well plate with 100 μL of medium. Before peptide treatment, cells were washed twice with PBS and treated with different concentrations of peptide in OPTIMEM (LifeTech). Media was added after 4 hrs of incubation at 37° C., and cells incubated for another 68 hrs. Tetrazolium (CellTiter96 AQueous One Solution Cell Proliferation Assay, Promega) was added after 72 hrs incubation with the peptides, and the plate was read at a plate reader at 490 nm after 1 hr of incubation in the dark at 37° C.

The subject of a further series is PTEN. As to the kind of experiment: PTEN transcript level by quantitative real-time PCR in SNU398 cells. The conditions noted are these: Q-PCR. Format: cell-based.
Another series concerns the target T1, RBBp4 (Homo sapiens, UniProt Q09028).
T1 construct: purchased SinoBiological
As to the kind of experiment: Fluorescence polarization (FP) competition with FITC-labelled SALL4 WT peptide. Format: binding. The note with it: for IC50: displacement of FITC-SALL4 WT peptide from RBBp4. The method, then:
as §1
Peptides were titrated into a master mix of 0.045 μM RBBp4 and […] C-terminal FITC-labelled WT peptide (synthesized by Thermo Scientific). Reactions were incubated at room temperature before the plate was read with an Envision instrument (Perkin Elmer). IC50 values of peptides were determined using Prism (GraphPad).

The subject of another series is SNU398 tumor xenografts. As to the kind of experiment: SNU398 xenograft in NSG mice. Format: in vivo, NOD/SCID/gamma mice. The conditions noted are these: for effect on tumor growth: SNU398 xenograft, tumor volume against time; for tumor weight: mean, tumors resected on day 20, five i.p. injections. The method, then:
FIGS. 7A-7E. […] FIG. 7A: 7.2×10^5 SNU398 cells were inoculated subcutaneously into the right flank of NOD/SCID/gamma mice (NSG mice). Tumors were allowed to grow for one week before peptide treatments were administered every alternate day for a total of five injections. FIG. 7B: Tumor growth was documented by plotting tumor volume against time. […] FIG. 7C: Relative size of tumors resected on day 20. FIG. 7D: tumor weight was determined (n=5). […] FIG. 7E: Total RNA was isolated from the resected tumors and expression of PTEN was measured using real-time PCR.
FIGS. 9A-9E. […] FIG. 9A: PEN-FFW treated SNU398 tumor xenografts were compared to that of Sorafenib treated xenografts. FIG. 9B: PEN-FFW treated PLC8024 tumor xenografts were compared to that of Sorafenib treated xenografts. Mice body weight was measured to access toxicity of various peptides. FIG. 9C: Body weight of mice at day 17. FIG. 9D: Differences of body weight compared to day 0 (As indicated by the arrow in far left of FIG. 7A). FIG. 9E: Body weight of mice at day 19th in the experiment shown in FIG. 9A comparing effect of Sorafenib and PEN-FFW. Data represent mean±s.d. (n=5).
All mice were treated in accordance with Responsible Care and Use of Laboratory animals. In the SNU398 in vivo studies, 6-8-week-old female C.B-17 severe combined immunodeficient (SCID) mice (NSG) were inoculated s.c. into the flank with 7.2×10^5 cells in 2:1 PBS/Matrigel (BD Biosciences). The tumours were then allowed to develop to the size of 50-70 mm3 before intraperitoneal injections of the different peptides were given at two to three-day intervals for a total of 5 injections. Mice were randomly grouped in sets of six and treated with PEN (penetratin control), PEN-MUT (mutant control), PEN-WT (wild type control) and PEN-FFW (peptide 47). Tumor volumes were measured every 5 days and tumor weight were measured at the end point. For PEN control, 22.5 mg/kg were given; for PEN-MUT, PEN-WT and PEN-FFW, 35.6 mg/kg, 37 mg/kg and 36 mg/kg were given respectively to the mice according to their body weight Tumor measurements were taken twice weekly using Vernier calipers. Tumor volume was estimated using the following formula: V=0.5×width×width×length. When tumors approached ˜50 mm3, mice were randomized into groups of 5 animals each and received peptides treatment three times weekly by i.p. injection. All statistical analysis was done using a one-way ANOVA and Student's T-test.

The test system of a further series is SNU398. Put plainly: RNA-seq transcriptome analysis of treated SNU398. Type of series: cell-based. The method, then: SNU398 were treated PEN, PEN-MUT, PEN-WT & PEN-FFW for 8 hrs and paired-end RNA-seq was performed for the treated samples. RNA-seq reads of each sample were mapped to hg19 using the STAR aligner. Normalization between the samples was based on the proportionality of the numbers of the mapped reads. The expression fold change of a transcript was obtained using linear regression of the reads between the two samples cross all exons. Differential expression between two samples was selected by using the fold change cut off of 2. Hierarchical clustering was performed based on average linkage to generate the clustering tree as well as heat maps. For identification of enriched gene sets or pathways, Gene Set Enrichment Analysis (GSEA) was performed based on the normalized data and using the GSEA tool (broad.mit.edu/gsea/) with msigdb.v5.0.

The nature of series [1]: Plasma stability by LC-MS/MS.
Protocol: PEN-FFW was incubated with human plasma (pH7.4) at 37° C. over a 24 hour period (5 timepoints). Incubations were performed at a concentration of 1 μM (final DMSO concentration 2.5%). Reactions were terminated at 0, 5, 10, 15, 30 min, or 0, 1, 2, 4 and 24 hour, by addition of 2 volumes of methanol containing 1% Formic acid. The samples were centrifuged (2500 rpm, 45 min, 4° C.) and the supernatants diluted with 2 volumes of 0.2% Formic acid (aq) (containing Metoprolol (internal standard)). […] The percentage of parent peptide remaining at each time point relative to the 0 min sample was calculated from LC-MS/MS peak area ratios (compound peak area/internal standard peak area).
In a further series the test system is PLC8024 tumor xenografts. As to the kind of experiment: PLC8024 xenograft (Sorafenib-resistant HCC). Format: in vivo, mice. The method, then: FIGS. 9A-9E. Clinical significance of PEN-FFW compared to Sorafenib. FIG. 9A: PEN-FFW treated SNU398 tumor xenografts were compared to that of Sorafenib treated xenografts. FIG. 9B: PEN-FFW treated PLC8024 tumor xenografts were compared to that of Sorafenib treated xenografts. Mice body weight was measured to access toxicity of various peptides. FIG. 9C: Body weight of mice at day 17. FIG. 9D: Differences of body weight compared to day 0 (As indicated by the arrow in far left of FIG. 7A). FIG. 9E: Body weight of mice at day 19th in the experiment shown in FIG. 9A comparing effect of Sorafenib and PEN-FFW. Data represent mean±s.d. (n=5).
Clinical significance of PEN-FFW was studied in vivo by benchmarking against current therapy using Sorafenib. PEN-FFW treated SNU398 tumor xenografts were compared to that of Sorafenib treated xenografts (FIG. 9A). […] Potential therapeutic effect of PEN-FFW in HCC patients that are refractory to Sorafenib treatment was studied also studied in vivo. using a HCC cell line, PLC8024 which is SALL4 positive, CD133+ and is both chemo- and radio-resistant (Li et al., BMC Cancer 2016, 16, 15; Ma et al., Oncogene 2008, 27: 1749-1758), for the xenograft study.

T1 sequence (Q09028 whole entry): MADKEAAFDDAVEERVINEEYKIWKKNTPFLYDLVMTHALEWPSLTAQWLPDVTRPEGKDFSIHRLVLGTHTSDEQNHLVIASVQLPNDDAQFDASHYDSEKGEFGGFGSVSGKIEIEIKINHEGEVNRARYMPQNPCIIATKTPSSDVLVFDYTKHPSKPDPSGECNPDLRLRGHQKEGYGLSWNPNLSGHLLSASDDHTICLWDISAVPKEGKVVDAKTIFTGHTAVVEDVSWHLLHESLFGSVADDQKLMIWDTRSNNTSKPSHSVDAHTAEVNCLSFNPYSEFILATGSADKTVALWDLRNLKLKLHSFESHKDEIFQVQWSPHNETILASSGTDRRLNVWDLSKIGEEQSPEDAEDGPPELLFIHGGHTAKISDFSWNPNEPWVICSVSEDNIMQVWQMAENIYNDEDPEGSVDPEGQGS

Consider “Ac-MSARAQAKPQHI-NH2 (N-terminus and C-terminus assumed) [MUT]”, for which the “effect on cell number” value in the series with SNU398 cells (SNU398, Pep-1 carrier added) is “does not”. Further, in the series on PTEN, the “increase in PTEN expression compared to untreated cells” value was “no significant change”.

By IC50 is commonly meant the concentration at which inhibition is half-maximal. High values mean weaker potency, low ones greater potency. Compound Ac-RRKQAKPQHA-NH2 [Peptide 16] gave an IC50 at RBBp4 of 460 ± 200 nM.

On RBBp4, Ac-ARKQAKPQHI-NH2 [Peptide 8] returned an IC50 of over 20000 nM.

Consider Ac-MSRRKQAKPQ-NH2 [Peptide 3], for which, on RBBp4, the IC50 came to 800 nM. This lies in the sub-micromolar range.

As for Ac-RRKFAKPQHI-NH2 [Peptide 24], the “enhancement in binding affinity over that of peptide 6” value on RBBp4 (ratio of FP IC50 values) came out at 7 fold.

As for RQIKIWFQNRRMKWKK [PEN], in the series on SNU398 tumor xenografts, the “effect on tumor growth” value is given as “neither peptide was able to inhibit tumor growth” and the tumor weight is reported as 1550.78 mg.

Ac-RRKLAKPQHI-NH2 [Peptide 23]: at RBBp4, the IC50 was 270 ± 100 nM.

For Ac-RRKQRKPQHI-NH2 [Peptide 26], on RBBp4, the half-maximal inhibitory concentration (IC50) is 460 ± 100 nM.

With Ac-RRKQAKPAHI-NH2 [Peptide 14], the IC50 at RBBp4 was found to be 120 ± 10 nM.

The EC50 is the concentration giving half of the maximal effect. As for RQIKIWFQNRRMKWKKMSARAQAKPQHI [PEN-MUT], in the series on SNU398 tumor xenografts, the “effect on tumor growth” value is on record as “neither peptide was able to inhibit tumor growth” and the tumor weight stood at 1273.46 mg. The compound also yielded an EC50 in the series with SNU398 cells of over 100000 nM.

At RBBp4, Ac-RRKQAKLQHI-NH2 [Peptide 33] showed an IC50 of 4400 ± 1100 nM.

Ac-RRKFAKFQWI-NH2 [Peptide 46] registered an IC50 at RBBp4 of 23 nM. In addition, the “increase in affinity as compared with the original 12-residue WT peptide” value on RBBp4 (ratio of FP IC50 values) is over 56 fold. Besides, the “log2 fd versus Contr (PEN + Mut), ADORA2A-AS1” value with SNU398 (gene ADORA2A-AS1, SNU398, 8 hrs) is listed as 2.17. Moreover, in the series with SNU398 (gene AVPR2, SNU398, 8 hrs), the “log2 fd versus Contr (PEN + Mut), AVPR2” value was 1.53. In addition, the “log2 fd versus Contr (PEN + Mut), CSAD” value in the series with SNU398 (gene CSAD, SNU398, 8 hrs) is on record as 1.09. For the same compound, the “log2 fd versus Contr (PEN + Mut), DNASE1L2” value in the series on SNU398 (gene DNASE1L2, SNU398, 8 hrs) is 1.11. In the series with SNU398 (gene LOC619207, SNU398, 8 hrs), the “log2 fd versus Contr (PEN + Mut), LOC619207” value was 1.33. The “log2 fd versus Contr (PEN + Mut), NEIL1” value in the series on SNU398 (gene NEIL1, SNU398, 8 hrs) was 1.11. In addition, in the series with SNU398 (gene PRKXP1, SNU398, 8 hrs), the “log2 fd versus Contr (PEN + Mut), PRKXP1” value turned out to be 2.12. Further, in the series on SNU398 (gene SSPO, SNU398, 8 hrs), the “log2 fd versus Contr (PEN + Mut), SSPO” value came to 2.40.

Compound Ac-RRRQAKPQHI-NH2 [Peptide 6] returned an IC50 at RBBp4 of 360 nM.

Turning to Ac-RRAQAKPQHI-NH2 [Peptide 10], on RBBp4, the IC50 was over 20000 nM.

In turn, Ac-RAKQAKPQHI-NH2 [Peptide 9] showed an IC50 on RBBp4 of over 20000 nM.

In turn, Ac-SRRKQAKPQHI-NH2 [Peptide 5] had an IC50 at RBBp4 of 600 nM.

The compound Ac-KRKQAKPQHI-NH2 [Peptide 17] gave an IC50 on RBBp4 of 3800 ± 500 nM.

A word on the fraction remaining: it is what is left of the initial amount, in per cent. A lower fraction remaining goes with more turnover. With `CC1CC(OC(=O)C(O)c2ccccc2)CC(C)(C)N1C` (stereo not drawn) [Eucatropine], in series [1] (human plasma, 37° C., 1 μM, after 30 min), the “peptide/compound remaining in the plasma” value was determined as 40%. Also, the fraction remaining at 0.5 h, 1 μM in series [1] (human, pH 7.4) is 40%.

In the case of `CNC(=O)c1cc(Oc2ccc(NC(=O)Nc3ccc(Cl)c(C(F)(F)F)c3)cc2)ccn1` [Sorafenib, reference compound], in the series on PLC8024 tumor xenografts, the “tumor growth as compared to the control group” value came to 1.5 fold.

Consider Ac-RRKQAKFQHI-NH2 [Peptide 34], for which the IC50 on RBBp4 worked out at 170 nM.

At RBBp4, Ac-RRKQAKPQWI-NH2 [Peptide 41] had an IC50 of 120 nM. Also, the “enhancement in binding affinity over that of peptide 6” value at RBBp4 (ratio of FP IC50 values) was determined as 3 fold.

As to Ac-RKQAKPQHI-NH2 [Peptide 7], the IC50 at RBBp4 is over 20000 nM.

Take RQIKIWFQNRRMKWKKMSRRKQAKPQHI [PEN-WT]: in the series with SNU398 tumor xenografts, the “effect on tumor growth” value is listed as “markedly impaired tumor growth”; the tumor weight is 563.46 mg and 564 mg. Also, in the series on SNU398 cells, the EC50 was found to be 30000 nM.

In turn, Ac-RRKQAKPLHI-NH2 [Peptide 38] came in with an IC50 on RBBp4 of 460 ± 100 nM.

For the compound Ac-RRKQAKAQHI-NH2 [Peptide 13], on RBBp4, the IC50 was 270 ± 30 nM.
